These results are taken from PubChem BioAssay (NCI).

Each structure is given as a SMILES string. Values joined by “and” are separate entries in the source; they are usually repeats but may differ in a detail not shown here. Equal entries are not always repeated.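 Values below derive from 48-hour exposures of cells grown in 96-well plates, with endpoints linearly interpolated between the two concentrations bracketing the appropriate inhibition level. GI50 is the concentration that inhibits growth by half. TGI denotes the concentration required for complete inhibition of growth.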

Holding throughout (experiment): NCI-60 cell line screen, 48 h
The test system of assay [1] is SK-MEL-5 melanoma.
For assay [2], the system named is DU-145 prostate.
Assay [3] concerns EKVX NSCLC.
Assay [4] concerns NCI-H226 lung.
The subject of assay [5] is MDA-MB-435.
For assay [6], the system named is SK-MEL-2 melanoma.
The subject of assay [7] is HOP-92 NSCLC.
The test system of assay [8] is NCI-H522 lung.
The subject of assay [9] is SF-268 CNS.
The subject of assay [10] is ACHN renal.
In assay [11] the test system is SNB-75 CNS.

As for `C/C=C/C(=O)N1C(=O)OC[C@@H]1c1ccccc1`, the TGI was found to be 38.4 µM in assay [1]; 37.4 µM in [2]; 35 µM in [3]; 39.6 µM in assay [4]; 70 µM in assay [5]; 36.9 µM in assay [6]. The TGI is 37.2 µM in [7]; 39.1 µM in [8]; 44.1 µM in [9]; 33.5 µM in [10]; 27.1 µM in [11].
For the compound `C=C1C(=O)O[C@H]2[C@H]1CC(=O)/C(C)=C/CC[C@@]1(C)O[C@@H]21`, the TGI in assay [1] turned out to be 2.63 µM; in assay [2], 18.7 µM; in [3] it was 24.8 µM; in assay [4], 19.8 µM; in assay [5], 5.43 µM; in [6], 8.47 µM. For the same compound, the TGI was 1.65 µM in assay [7]; 0.729 µM in assay [8]; 13.4 µM in assay [9]; 1.44 µM in assay [10]; 31.6 µM in assay [11]. In addition, the GI50 in assay [3] was 6.06 µM.
Turning to `C=C1CN(Cc2ccccc2)[C@@H]2CCCCC[C@H](C#N)[C@H]12`, the TGI in assay [1], in assay [2], in [3], in [4], in [5] and in assay [6] was greater than 100 µM throughout. The TGI in [7] is greater than 93 µM; in [8], greater than 100 µM; in assay [9], greater than 100 µM; in [10] it was greater than 100 µM; in assay [11], greater than 100 µM.
Take `COc1cc2c(cc1OCc1ccccc1)NC(=S)[C@@H]1CCCN1C2=S`: the TGI in assay [1], in [2], in assay [3], in [4], in [5] and in [6] was greater than 100 µM throughout. The TGI in assay [7] is greater than 100 µM; in assay [8] it was greater than 100 µM; in assay [9] it was greater than 100 µM; in assay [10], greater than 100 µM; in [11], 90.3 µM.
Regarding `C=CC[C@@]1(C)CCCCCCCCC[C@@](C)(CC=C)C1=O`, the TGI is 29.5 µM in assay [1]; greater than 100 µM in [2]; greater than 100 µM in [3]; 48.4 µM in assay [4]; greater than 100 µM in [5]; 37.9 µM in assay [6]. For the same compound, the TGI in [7] is greater than 100 µM; in assay [8], 59.4 µM; in assay [9], greater than 100 µM; in assay [10], greater than 100 µM; in [11], 92.4 µM.
With `COc1ccc(/C=C2\N=C(NN)N=C2Cl)cc1`, the TGI in assay [1], in assay [2], in assay [3], in [4], in assay [5] and in [6] was greater than 100 µM each time. The TGI in assay [7], in [8], in assay [9], in [10] and in [11] was greater than 100 µM in each case.
Turning to `CCCCC(=O)Oc1ccc2c(C)cc(=O)oc2c1`, the TGI in [1], in [2], in assay [3], in assay [4], in [5] and in assay [6] was greater than 100 µM each time. Further, the TGI in assay [7], in assay [8], in assay [9], in [10] and in [11] was greater than 100 µM in each case.
Take `CC#CCCN(CC#N)Cc1ccccc1`: the TGI in [1], in [2], in assay [3], in [4], in assay [5] and in assay [6] was greater than 100 µM each time. Also, the TGI in [7] was greater than 100 µM; in assay [8] it was greater than 100 µM; in assay [9], greater than 100 µM; in [10], 48 µM; in assay [11], greater than 100 µM.
In the case of `Cc1cn(C2CC(N)C(C(=O)O)O2)c(=O)[nH]c1=O` (centres undefined), the TGI in [1], in [2], in assay [3], in [4], in assay [5] and in [6] was greater than 100 µM throughout. The TGI in assay [7], in assay [8], in assay [9], in assay [10] and in assay [11] was greater than 100 µM each time.
`O=C(c1ccccc1)c1sc2c(=O)c(C(=O)c3ccccc3)c(C(=O)c3ccccc3)sc2c(=O)c1C(=O)c1ccccc1`: the TGI in assay [1] was greater than 100 µM; in assay [2], greater than 100 µM; in assay [3], greater than 100 µM; in assay [4] it was greater than 100 µM; in assay [5], 70.9 µM; in [6], greater than 100 µM. Moreover, the TGI is greater than 100 µM in assay [7]; 38.6 µM in [8]; greater than 100 µM in [9]; greater than 100 µM in assay [10]; 68 µM in assay [11].
Consider `C/C(=C\c1ccc(Cl)c(Cl)c1)[N+](=O)[O-]`, for which the GI50 is 3.05 µM in assay [1]; 17.5 µM in assay [4]; 1.84 µM in assay [5]; 1.43 µM in [7]; 1.66 µM in assay [9]; 1.77 µM in [10]. The GI50 in assay [11] is 1.46 µM. Further, the TGI in [1] was 11.3 µM and 3.94 µM; in assay [2] it was 2.92 µM and 3.12 µM; in assay [3], 3.9 µM and 4.58 µM; in assay [4], 42.6 µM and 5.26 µM; in [5], 3.71 µM and 4.55 µM; in assay [6], 4.05 µM and 4.03 µM. Moreover, the TGI was 2.99 µM in assay [7]; 3.14 µM in [8]; 3.31 µM and 3.33 µM in assay [9]; 3.6 µM and 3.82 µM in assay [10].
In the case of `COC(=O)c1ccccc1/C=C1\Cc2cc(C)c(C)cc2C1=O`, the TGI is greater than 100 µM in [1]; greater than 100 µM in assay [2]; greater than 100 µM in [3]; greater than 100 µM in assay [4]; greater than 100 µM in assay [5]; 68.3 µM in assay [6]. The TGI in assay [7] is 59.2 µM; in assay [8] it was greater than 100 µM; in [9], greater than 100 µM; in assay [10], greater than 100 µM; in assay [11], 81.3 µM.
